Active and inactive are the calls of the source. No cut-off for these calls is given here.
Columns and labels:
Nucleic Acid [1] = test: Binding affinity to single-strand oligonucleotide MutPu39 assessed as formation of G-quadruplex complex after 3 mins by PCR stop assay; assay type: nucleic-acid assay
Nucleic Acid [2] = test: Binding affinity to single-strand oligonucleotide Pu39 assessed as formation of G-quadruplex complex after 3 mins by PCR stop assay; assay type: nucleic-acid assay
HL-60 [3] = test: Cell cycle arrest in human HL60 cells assessed as accumulation at sub-G1 phase at 1 uM after 4 days by propidium iodide staining-based flow cytometry; assay type: functional
Nucleic Acid [4] = test: Binding affinity to Bcl-2 promoter duplex DNA by surface plasmon resonance assay; assay type: nucleic-acid assay
HL-60 [5] = test: Antiproliferative activity against human HL60 cells at 0.1 to 1 uM after 4 days by trypan blue exclusion assay; assay type: functional, cell-based
Nucleic Acid [6] = test: Binding affinity to human single-strand oligonucleotide Pu39 transfected in human HL60 cells assessed as Bcl-2 transcriptional activation at 0.4 uM after 48 hrs by luciferase reporter gene assay relative to untreated Pu39-construct control; assay type: cell-based; conditions: HL-60
Nucleic Acid [7] = test: Binding affinity to Bcl-2 promoter quadruplex DNA by surface plasmon resonance assay; assay type: nucleic-acid assay
Nucleic Acid [8] = test: Stabilization of single-strand oligonucleotide MidG4 assessed as melting temperature by FRET assay; assay type: nucleic-acid assay
HL-60 [9] = test: Cell cycle arrest in human HL60 cells assessed as accumulation at sub-G1 phase at 0.5 uM after 4 days by propidium iodide staining-based flow cytometry; assay type: functional
Nucleic Acid [10] = test: Binding affinity to human single-strand oligonucleotide Pu39 transfected in human HL60 cells assessed as reduction of Bcl-2 transcriptional activation at 0.4 uM after 48 hrs by luciferase reporter gene assay; assay type: cell-based; conditions: HL-60
HL-60 [11] = test: Downregulation of Bcl-2 protein expression in human HL60 cells at 0.1 to 1 uM after 4 days by Western blot analysis; assay type: functional, cell-based
Nucleic Acid [12] = test: Binding affinity to human single-strand oligonucleotide MutPu39 transfected in human HL60 cells assessed as Bcl-2 transcriptional activation at 0.4 uM after 48 hrs by luciferase reporter gene assay relative to untreated MutPu39-construct control; assay type: cell-based; conditions: HL-60
HL-60 [13] = test: Induction of apoptosis in human HL60 cells assessed as PARP cleavage at 1 uM after 4 days by Western blot analysis; assay type: functional, cell-based
HL-60 [14] = test: Cell cycle arrest in human HL60 cells assessed as accumulation at sub-G1 phase at 0.2 uM after 4 days by propidium iodide staining-based flow cytometry; assay type: functional
Nucleic Acid [15] = test: Selectivity ratio of Kd for Bcl-2 promoter duplex DNA to Kd for Bcl-2 promoter quadruplex DNA; assay type: nucleic-acid assay
Nucleic Acid [16] = test: Binding affinity to human single-strand oligonucleotide MutPu39 transfected in human HL60 cells assessed as Bcl-2 transcriptional activation at 0.4 uM after 48 hrs by luciferase reporter gene assay relative to untreated Pu39-construct control; assay type: cell-based; conditions: HL-60
HL-60 [17] = test: Downregulation of Bcl-2 mRNA expression in human HL60 cells at 0.8 uM by RT-PCR analysis; assay type: functional
HL-60 [18] = test: Antiproliferative activity against human HL60 cells assessed as viable cells at 1 uM after 4 days by trypan blue exclusion assay; assay type: functional; conditions: HL-60, 96 h, read-out: Activity
HL-60 [19] = test: Induction of apoptosis in human HL60 cells assessed as cleavage of 17 kDa procaspase-3 at 0.1 to 1 uM after 4 days by Western blot analysis; assay type: functional, cell-based
HL-60 [20] = test: Induction of apoptosis in human HL60 cells assessed as cleavage of 35 kDa procaspase-3 at 0.1 to 1 uM after 4 days by Western blot analysis; assay type: functional, cell-based
HL-60 [21] = test: Downregulation of Bcl-2 mRNA expression in human HL60 cells by RT-PCR analysis; assay type: functional, cell-based
Nucleic Acid [22] = test: Binding affinity to human single-strand oligonucleotide MutPu39 transfected in human HL60 cells assessed as reduction of Bcl-2 transcriptional activation at 0.4 uM after 48 hrs by luciferase reporter gene assay; assay type: cell-based; conditions: HL-60
HL-60 [23] = test: Induction of apoptosis in human HL60 cells assessed as PARP cleavage at 0.2 uM after 4 days by Western blot analysis; assay type: functional, cell-based
HL-60 [24] = test: Downregulation of Bcl-2 protein expression in human HL60 cells at 0.02 to 0.2 uM after 4 days by Western blot analysis; assay type: functional, cell-based
HL-60 [25] = test: Cell cycle arrest in human HL60 cells assessed as accumulation at sub-G1 phase at 0.05 uM after 4 days by propidium iodide staining-based flow cytometry; assay type: functional
HL-60 [26] = test: Induction of apoptosis in human HL60 cells assessed as cleavage of 17 kDa procaspase-3 at 0.02 to 0.2 uM after 4 days by Western blot analysis; assay type: functional, cell-based
HL-60 [27] = test: Antiproliferative activity against human HL60 cells at 0.02 to 0.2 uM after 4 days by trypan blue exclusion assay; assay type: functional, cell-based
HL-60 [28] = test: Induction of apoptosis in human HL60 cells assessed as cleavage of 35 kDa procaspase-3 at 0.02 to 0.2 uM after 4 days by Western blot analysis; assay type: functional, cell-based
HL-60 [29] = test: Cell cycle arrest in human HL60 cells assessed as accumulation at sub-G1 phase at 0.1 uM after 4 days by propidium iodide staining-based flow cytometry; assay type: functional
HL-60 [30] = test: Antiproliferative activity against human HL60 cells assessed as viable cells at 0.2 uM after 4 days by trypan blue exclusion assay; assay type: functional; conditions: HL-60, 96 h, read-out: Activity
HL-60 [31] = test: Downregulation of Bcl-2 mRNA expression in human HL60 cells at 0.2 uM by RT-PCR analysis; assay type: functional

IC50 (Nucleic Acid [1]) | IC50 (Nucleic Acid [2]) | Kd (Nucleic Acid [4]) | Kd (Nucleic Acid [7]) | Tm (Nucleic Acid [8]) | Selectivity ratio (Nucleic Acid [15]) | Structure (SMILES) | Activity (Nucleic Acid [6]) | inhibition (Nucleic Acid [10]) | Activity (Nucleic Acid [12]) | Activity (HL-60 [14]) | Activity (Nucleic Acid [16]) | Activity (HL-60 [21]) | inhibition (Nucleic Acid [22]) | also measured
> 100 µM | 74.4 µM | 0.482 µM | 0.167 µM | 65.1 °C | 2.9 | CN(C)CCCNc1c2ccccc2nc2c1[nH]c1ccc(F)cc12 | 70.5% | 30% | 88.3% | 3% | 156% | Dose-dependent effect | 12% | Activity (HL-60 [3]): 22.3%; Activity (HL-60 [5]): Active; Activity (HL-60 [9]): 6.1%; Activity (HL-60 [11]): Active; Activity (HL-60 [13]): Active; Activity (HL-60 [17]): 50%; viability at 1 µM (HL-60 [18]): < 25%; Activity (HL-60 [19]): inactive; Activity (HL-60 [20]): Active
> 100 µM | > 100 µM | 3.38 µM | 1.5 µM | 51.5 °C | 2.3 | OCCNc1c2ccccc2nc2c1[nH]c1ccccc12 | 84.4% | – | 92.6% | – | 163% | – | – | –
19.7 µM | 1.11 µM | 0.269 µM | 0.0318 µM | 76.9 °C | – | CN(C)CCCNc1c2ccccc2[n+](C)c2c1[nH]c1ccc(F)cc12.[I-] | 51.4% | 50% | 74.6% | 3.5% | 132% | Dose-dependent effect | 25% | Activity (HL-60 [23]): Active; Activity (HL-60 [24]): Active; Activity (HL-60 [25]): 5%; Activity (HL-60 [26]): inactive; Activity (HL-60 [27]): Active; Activity (HL-60 [28]): Active; Activity (HL-60 [29]): 23.8%; viability at 0.2 µM (HL-60 [30]): < 25%; Activity (HL-60 [31]): 50%

Reference: ChEMBL document CHEMBL1158594, “Turning off transcription of the bcl-2 gene by stabilizing the bcl-2 promoter quadruplex with quindoline derivatives” (J Med Chem, 2010)
